The values that follow are results of earlier work, collected in US8062679B2, “Composition for maintaining androgen and androgen-like uptake potential by cells” (Northern Innovations and Formulations Corp., priority 2007, dated 2011).

Like-named read-outs stand apart in the source and are kept apart here.

The conditions of data set [1]: human blood.
The subject of data set [2] is mitochondrial permeability transition.
Data set [3] relates to lutenizing hormone (LH). The conditions noted are these: after exercise, animals.
The conditions of data set [4]: fights ROS under low oxygen tension.
The conditions of data set [5]: prolonged L-carnitine administration.
The conditions of data set [6]: three weeks, equivalent of 2 g elemental carnitine per day; cross-over, placebo controlled.
Data set [7] has as its target T1, aromatase (Homo sapiens, UniProt P11511).
T1 sequence (P11511 1-503): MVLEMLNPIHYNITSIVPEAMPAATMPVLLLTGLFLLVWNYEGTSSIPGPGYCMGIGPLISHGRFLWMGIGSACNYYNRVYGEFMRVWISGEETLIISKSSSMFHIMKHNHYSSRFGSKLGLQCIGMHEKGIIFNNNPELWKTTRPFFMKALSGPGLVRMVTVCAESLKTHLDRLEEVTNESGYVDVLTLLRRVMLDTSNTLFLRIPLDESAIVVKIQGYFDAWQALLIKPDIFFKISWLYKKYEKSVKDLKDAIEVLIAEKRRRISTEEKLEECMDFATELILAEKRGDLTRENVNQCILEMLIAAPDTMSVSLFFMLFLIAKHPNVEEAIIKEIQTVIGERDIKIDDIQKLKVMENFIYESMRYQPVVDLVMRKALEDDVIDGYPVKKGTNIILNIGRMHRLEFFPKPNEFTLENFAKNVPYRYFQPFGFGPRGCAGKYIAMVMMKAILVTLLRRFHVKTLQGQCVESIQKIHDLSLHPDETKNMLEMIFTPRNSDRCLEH

Data set [8] has as its system GH. The conditions noted are these: oral, both 0.5 mg and 5.0 mg.
Data set [9] has as its system GH.
In data set [10] the test system is GH. This is another data set of the same source.

In the case of `COC1=C(OC)C(=O)C(C/C=C(\C)CC/C=C(\C)CC/C=C(\C)CC/C=C(\C)CC/C=C(\C)CC/C=C(\C)CC/C=C(\C)CC/C=C(\C)CC/C=C(\C)CCC=C(C)C)=C(C)C1=O` [CoQ10, ubidecarenone], the antioxidant activity entry in data set [1] is listed as “potent antioxidant”. Further, the exercise duration entry (individuals suffering from angina, vs untreated groups) is “able to exercise for longer periods”. Also, the myocardial function entry (patients with disease conditions involving energy production deficits) was “improved”. With `CCCCCCCCCCC1=C(C)C(=O)C(OC)=C(OC)C1=O` [Decylubiquinone], the “redox-dependent mitochondrial permeability transition” value in [2] is given as “effectively block”.

As to `CC(C)=CCC[C@](C)(O[C@@H]1O[C@H](CO[C@@H]2O[C@H](CO)[C@@H](O)[C@H](O)[C@H]2O)[C@@H](O)[C@H](O)[C@H]1O)[C@H]1CC[C@]2(C)[C@@H]1[C@H](O)C[C@@H]1[C@@]3(C)CC[C@H](O[C@@H]4O[C@H](CO)[C@@H](O)[C@H](O)[C@H]4O[C@@H]4O[C@H](CO)[C@@H](O)[C@H](O)[C@H]4O)C(C)(C)[C@@H]3CC[C@]12C` [Ginsenoside Rb1], in data set [3], the “secretion of lutenizing hormone (LH)” value is “stimulate the secretion”.

With `COC1=C(OC)C(=O)C(CCCCCCCCCCO)=C(C)C1=O` [Idebenone], the antioxidant activity entry in [4] is reported as “potent antioxidant”. Take `C[N+](C)(C)C[C@H](O)CC(=O)[O-]` [L-carnitine]: in data set [5], the “pain and damage from eccentric muscular effort” value is given as “protective effect”. As for `C[N+](C)(C)C[C@H](O)CC(=O)[O-].O=C(O)C(O)C(O)C(=O)O` [LCLT, L-carnitine L-tartrate], in [6], the “muscle damage produced by an acute bout of high-intensity resistance exercise” value is listed as “reduce muscle damage”.

As to `CCCCC/C=C\C/C=C\CCCCCCCC(=O)O` [linoleic], the aromatase activity entry in data set [7] was “efficient suppressors”. On to `CC/C=C\C/C=C\C/C=C\CCCCCCCC(=O)O` [linolenic], for which the aromatase activity entry in [7] is reported as “efficient suppressors”. `COc1ccc2[nH]cc(CCNC(C)=O)c2c1` [melatonin, N-Acetyl-5-methoxytryptamine]: in data set [8], the “plasma GH concentrations” value is reported as “significant increase” and the “time of peak plasma GH” value is 60 min. Further, in data set [9] (5.0 mg orally 60 minutes prior to bicycle exercise at 70% VO2max, vs placebo), the “GH, area under the curve” value is on record as “significant increases”. For the same molecule, the “time of GH peak following exercise” value in data set [9] (5.0 mg orally 60 minutes prior to exercise) was 30 min. In addition, in data set [10] (0.5 and 5.0 mg, weight-trained young males), the “serum free GH following a single bout of heavy-resistance exercise” value is “significantly more effective than placebo”. For the same molecule, the “serum IGFBP-3” value in [10] (pre- and post-exercise periods) was “notable increases”. As to conjugated linoleic acids, the aromatase activity entry in [7] is given as “efficient suppressors”.
